Results from patent US9440966B2, “Compounds for treatment of metabolic syndrome” (SJT MOLECULAR RESEARCH, S.L., priority 2011, dated 2016).
Entries after “also recorded” stand apart in the source; their conditions may differ. Counter-ions that a name gives are not always drawn.

What was measured:
normoglycemic rats [1] = assay: Oral glucose tolerance test in normoglycemic rats (Examples 27, 28); assay type: in vivo, Male Wistar rats; settings: vs control group
Method: (§1) Male Wistar rats were utilized provided by Mato Grosso do Sul's Federal University's Biotherium. Until the experiments were carried out, the animals have had free access to feed and water. The room temperature was kept at 22±2° C. and the light/dark cycle was of 12 hours.
The glucose tolerance test is a reference method for the diagnosis of diabetes or glucose intolerance (5).
Distinct rat groups were orally treated, once a day, with 3-(carbohydrazyl-N′-phenylsubstituted)-1-benzosubstituted-β-carbolinic-3-carbohydrazide (compound 7a or ANIS-BZ) at doses: 0.5, 1 or 5 mg/kg or vehicle (control) for 3 days. Similarly, another rat group received metformin (reference drug used for lowering glucose serum levels) in a 300 mg/kg dose, orally, once a day for 3 days. The oral glucose tolerance test was carried out by administering of a glucose solution (2 g/kg body mass). Glycemia was determined at zero time (before oral administering) and at 60 minutes after the glucose overload.
Distinct groups of rats were treated orally, once a day, with N(-ethylamine)-1-benzosubstituted-β-carboline-3-carboxamide (compound 4a or ANIS-NH2) at doses: 0.5, 1 or 5 mg/kg, or vehicle for 3 days. Similarly, another group of rats received metformin in a 300 mg/kg dose orally for 3 days once a day. The oral glucose tolerance test was done under the administration of a glucose solution (2 g/kg body mass). Glycemia will be determined at the zero (before oral administration) time and 60 minutes after glucose overload.

SHR hypertensive rats = assay: Plasma cholesterol levels test in SHR hypertensive rats; assay type: in vivo, Male SHR; settings: 25 days of treatment (15 mg/Kg) oral, effect more pronounced for 5a and 7a
Method: (§2) Distinct rat groups were orally treated, once a day, with 5 mg/kg of compounds 4a or 5a or 6a during the first 4 days, 10 mg/kg during the next 4 days and 15 mg/kg until the end of the treatment period or vehicle (control) for the same days. Similarly, another rat group received metformin (MET) (reference drug used for lowering glucose serum levels) in a 300 mg/kg dose, orally, from day 1 to the end of the treatment. Plasma cholesterol levels were measured in triplicate 12 hours after drug administration by the cholesterol oxidase/peroxidase method (BioSystems S.A, Barcelona, Spain). Blood samples were obtained by femoral vein punction. This method was chosen because of its noninvasive character, enabling daily measurements with the same rats throughout the entire treatment.
Male SHR were provided by Charles River Laboratories (USA). Until the experiments were carried out, the animals have had free access to feed and water. The room temperature was kept at 22±2° C. and the light/dark cycle was of 12 hours. All procedures were submitted to the Animal Experimentation Ethics Committee.
as §2, with “metformin” for “metformin (MET)”, “Blood pressure was” for “Plasma cholesterol levels were”, “4” for “12”, “administration in warmed warmed, restrained, conscious rats” for “administration”, “tail-cuff” for “cholesterol oxidase/peroxidase”, “with a computerized oscillometric system recorder (Nyprem, Cibertec).” for “(BioSystems S.A, Barcelona, Spain). Blood samples were obtained by femoral vein punction.”

[2] = tested on: Drosophila melanogaster (Oregon-R strain); assay: Toxicology study: larva-to-adult viability and development time
Text: The purpose of this study was to test and compare the potential toxic effects of compounds 5a, 6a and 7a on the larva-to-adult viability and development time in a Drosophila melanogaster (Oregon-R) flies. These studies have a relevant predictive role with the aim to anticipate possible adverse toxicological effects that may happen during preclinical studies with animal, preferably mammals. In addition, the data provided are highly quantitative.
Drosophila melanogaster (Oregon-R) flies were obtained by the University of the Balearic Islands (Spain). […] The larvae were seeded on standard food supplemented with the appropriate dose of compounds tested. Each compound was tested at 1, 10, 100, 1000 and 2000 μg/ml dissolved in standard food.
Fly adults were transferred from the serial transfer system to bottles with fresh food for 24 h. Adults 5 days old were placed on egg collecting devices (layers) containing a mixture of agar, water, acetic acid, and ethyl alcohol, with a drop of active yeast on it. Every 2 h., the layer glasses were changed, in this way, the eggs of a glass have similar age, with a maximum difference of 2 h. among them. The glasses of the layers were kept at 25° C. for at least 22 h. in Petri dishes until larvae hatched. Fifty larvae were picked with a lancet under a stereoscopic microscope and were seeded into 10×2 cm vials with 5 ml food. Vials were supplemented with 4a, 5a and 7a at 1, 10 and 100 μg/ml. As positive control we used cupric acetate (toxic) at 350 μg/ml.
The number of adult flies which emerged from each vial was counted daily until the exhaustion of the culture. The parameters studied were the larvae-to-adult viability (V) and development time.
Viability is expressed as V=NA/NL, where NL is the input number of larvae ([…] in our case) and NA the output number of adults emerging from these NL larvae. Development time was measured in days by the formula DT=ΣNidi/ΣNi where Ni is the number of flies emerging on the day di after the larvae were placed in the medium.
The data are expressed as the mean±SEM values from 3 independent experiments involving triplicate vials at the number of flies indicated.

female Swiss mice = assay: Acute oral toxicology study in a mice model; assay type: in vivo; settings: oral 2000 mg/kg single dose, observation for 14 days
Method: The experiments were conducted using female Swiss mice (20-30 g), housed under a 12-h light-dark cycle, with controlled humidity (60-80%), and temperature (22±1° C.). Food and water were freely available to the mice.
Female mice (n=6) were orally (2000 mg/kg) administered with a single dose of 4a, 5a, and 7a for the observation of acute signs of toxicity until 14 days. […] The observations comprised the behavior and manifestations of the toxic symptoms, and were carried out according to the Guidelines of the Organization for Economic Cooperation and Development (OECD, 2008).
All compounds were dissolved in sterile saline and were administered by oral gavage to mice based in the weight, for example 20 g received 20 μL.
The data are expressed as mean±S.E.M. of experiments. Statistical significance was determined through one-way analysis of variances (ANOVA), followed by either Newman-Keuls test. A p<0.05 was considered statistically significant. Graphs were drawn and statistical analysis was carried out using GraphPad Prism version 5.00 for Windows (GraphPad Software, San Diego, Calif., USA).

normoglycemic rats [3] = assay: Oral glucose tolerance test in normoglycemic rats (Examples 36, 37); assay type: in vivo, Male Wistar rats; settings: 10 mg/kg orally, single dose per day
Method: as §1, with “rats (200-300 g)” for “rats”, “C. with controlled humidity (60-80%)” for “C.”
The glucose tolerance test was evaluated as described by Al-Awaki et al (6).
Rats were randomly divided into […] groups of four animals that were control group that received only a solution of saline, compound 23b group (10 mg/kg), compound 21a group (10 mg/kg) and metformin 300 mg/kg group. Respective treatments were made orally and daily for five days.
(§3) On day 1, 3, and 5, different groups of rats were fasted overnight (at least 12 h) prior to the test, but with given water ad libitum. The oral glucose tolerance test was carried out by administering of a glucose solution (2 g/kg body weight) according to Al-Awadi et al (6). Glycemia was determined in blood samples collected from the tail vein at −30 minutes (just before the administration of the oral extract) time 0 (prior to the glucose overload) and at 60 minutes after the glucose overload. Serum glucose concentrations were measured by the glucose oxidase method (7) using commercial kit (Accuchek-performa (Roche)) according to the manufacture's instructions.
as §1, with “rats (200-300 g)” for “rats”, “C. with controlled humidity (60-80%)” for “C.”, “hours. All procedures were submitted to the Animal Experimentation Ethics Committee.” for “hours.”
The compounds 21b, 23a and 23d were diluted firstly in 20 μl of ethanol and after in 980 μl de saline. Compounds 21e, 23e and 26b were dissolved in sterile saline and were administered by oral gavage to rats based in the weight, for example 200 g received 200 μL.
54 rats were randomly divided into […] groups of five-eight animals that were control group (n=8) that received only a solution of vehicle, compound 21b group (n=5) (10 mg/kg), compound 21e group (n=5) (10 mg/kg), compound 23e group (n=5) (10 mg/kg), compound 23a group (n=5) (10 mg/kg), compound 23d group (n=5) (10 mg/kg), compound 26b group (n=5) (10 mg/kg) and metformin (n=6) 300 mg/kg group. Respective treatments were made orally and daily for five days.
as §3, with “manufactures's” for “manufacture's”

[4] = fifth day, in relation to control group

With `COc1ccc(-c2nc(C(=O)N/N=C/c3ccccc3)cc3c2[nH]c2ccccc23)cc1` [Compound 7a, 3-(carbohydrazyl-N′-phenylsubstitute)-1-benzosubstitute-β-carbolinic-3-carbohydrazide] the “glycemic levels of animals that received an oral glucose overload” value (“glycemic levels” below) (normoglycemic rats [1]; after 3 days, 0.5 mg/kg oral once a day) was “only the 1 and 5 mg/kg doses reduced statistically significant the glycemic levels”, the “glycemic levels” value (normoglycemic rats [1]; after 3 days, 1 mg/kg oral once a day) was “reduced statistically significant the glycemic levels” and the “glycemic levels” value (normoglycemic rats [1]; after 3 days, 5 mg/kg oral once a day, 5 mg/kg) was “reduces the glycemic levels; also recorded: reduced statistically significant the glycemic levels”. The “glycemic levels” value (normoglycemic rats [1]; first day, 5 mg/kg oral, 60 min after glucose 2 g/kg) was “reduces the glycemic levels”, the plasma cholesterol levels (SHR hypertensive rats) was “inhibition of plasma cholesterol levels” and the “larvae-to-adult viability and development time” value ([2]; in vivo) was “not affected”. For the same compound, the “mortality or behavioral disorders (acute signs of toxicity)” value (female Swiss mice) was “did not produce mortality or any behavioral disorders”.

With `Cl.NCCNC(=O)c1cc2c([nH]c3ccccc32)c(-c2ccc(Cl)cc2)n1` [Compound 21b, N-(2-aminoethyl)-1-(4-chlorophenyl)-9H-pyrido[3,4-b]indole-3-carboxamide] the “glucose levels in oral glucose tolerance test” value (“glucose levels” below) (normoglycemic rats [3]; [4]) was “reduced the glucose levels”.

`COc1ccc(-c2nc(C(=O)N3CCOCC3)cc3c2[nH]c2ccccc23)cc1.Cl` [Compound 23a, [1-(4-methoxyphenyl)-9H-pyrido[3,4-b]indol-3-yl]-4-morpholinyl-Methanone Hydrochloride] was tested, and the “glucose levels” value (normoglycemic rats [3]; first day) was “significant reduction in glucose levels”.

For `COc1ccc(-c2nc(C(=O)NCCN(C)C)cc3c2[nH]c2ccccc23)cc1` [Compound 23b, N-(2-dimethylaminoethyl)-1-(4-methoxyphenyl)-9H-pyrido[3,4-b]indole-3-carboxamide hydrochloride], the “glucose levels” value (normoglycemic rats [3]; [4]) was “reduced the glucose levels” and the “glucose levels” value (normoglycemic rats [3]; third day) was “significant reduction in glucose levels”.

For `COc1ccc(-c2nc(C(=O)NCCO)cc3c2[nH]c2ccccc23)cc1.Cl` [Compound 23d, N-(2-hydroxyethyl)-1-(4-methoxyphenyl)-9H-pyrido[3,4-b]indole-3-carboxamide hydrochloride], the “glucose levels” value (normoglycemic rats [3]; [4]) was “reduced the glucose levels”.

For `COc1ccc(-c2nc(C(=O)NCCCCN)cc3c2[nH]c2ccccc23)cc1.Cl` [Compound 23e, N-(4-aminobutyl)-1-(4-methoxyphenyl)-9H-pyrido[3,4-b]indole-3-carboxamide hydrochloride], the “glucose levels” value (normoglycemic rats [3]; [4]) was “reduced the glucose levels”, the “glucose levels” value (normoglycemic rats [3]; first day) was “significant reduction in glucose levels” and the “glucose levels” value (normoglycemic rats [3]; third day) was “significant reduction in glucose levels”.

For `CC(=O)[O-].CC(=O)[O-].[Cu+2]` [Cupric acetate, cupric acetate, reference compound], the “Larva-to-adult viability (% emerged adult flies)” value ([2]; 350 μg/ml, positive control (toxic)) was 0%.
